Measurements as given in patent publication US20220257500A1, “USE OF A HYDRO-ALCOHOLIC EXTRACT OF EVENING PRIMROSE FOR HYDRATING SKIN AND INCREASING BARRIER FUNCTION” (L'OREAL, priority 2019, published 2022).

Key:
Type in all cases: cell-based
Conditions in all cases: normal human epidermal keratinocytes, 24 h, normalised to GAPDH
[1] = tested on: SPRR1A (small proline-rich protein 1A); assay: RT-qPCR analysis of gene expression, SPRR1A transcript
Experimental: (§1) Normal, human epidermal keratinocytes were used to conduct the study. Normal, human epidermal keratinocytes were seeded in 48-well culture plates and cultured in culture medium for 3 days at 37° C. under 5% CO2 with renewal of the culture medium after the first 24 hours of culture. After incubation, the culture medium was replaced by test medium (supplemented with 1.5 mM CaCl2) containing or not containing (control) the compounds to be tested, and the cells were incubated for 24 hours. All conditions were performed with n=2. After treatment, the culture media were removed and the cells rinsed twice with PBS (w/o CaCl2, w/o MgCl2). Total RNAs were isolated using a magnetic bead extraction kit, following the manufacturer's instructions (MagMAX™-96 Total RNA Isolation Kit, Ambion). Quantification of RNAs and quality control thereof were analysed using Labchip GX (Perkin Elmer). Expression of the selected transcripts was analysed by two-step quantitative PCR. First, the cDNAs were retro-transcribed from the RNAs using the Quantitect® Reverse transcription kit (QIAGEN) following the manufacturer's instructions. The quantitative PCR experiments were performed using a LightCycler® 480 Real-Time PCR System in 384-well plate (Roche) following the incorporation technique of SYBR®Green (Roche) (Table 4). The results are expressed as fold change (Fc) as compared with the non-treated control, after normalising relative expressions in relation to expression of a housekeeping gene (GAPDH). The expression of a gene is considered to be stimulated when it is multiplied at least by 1.5.

[2] = tested on: LCE3D (late cornified envelope 3D); assay: RT-qPCR analysis of gene expression, LCE3D transcript
Experimental: as §1

[3] = tested on: CNFN (cornifelin); assay: RT-qPCR analysis of gene expression, CNFN transcript
Experimental: as §1

[4] = tested on: FLG2 (filaggrin 2); assay: RT-qPCR analysis of gene expression, FLG2 transcript
Experimental: as §1

Row | Compound | SPRR1A Fold change vs Control (Fc) ([1]; 0.004 mg/mL) | LCE3D Fold change vs Control (Fc) ([2]; 0.004 mg/mL) | CNFN Fold change vs Control (Fc) ([3]; 0.004 mg/mL) | FLG2 Fold change vs Control (Fc) ([4]; 0.004 mg/mL) | SPRR1A Fold change vs Control (Fc) ([1]; 0.1 mg/mL) | LCE3D Fold change vs Control (Fc) ([2]; 0.1 mg/mL) | CNFN Fold change vs Control (Fc) ([3]; 0.1 mg/mL) | FLG2 Fold change vs Control (Fc) ([4]; 0.1 mg/mL)
1 | O=c1oc2c(O)c(O)cc3c(=O)oc4c(O)c(O)cc1c4c23 [Ellagic acid, ellagic acid] | 0.96 fold change | 0.51 fold change | 0.64 fold change | 1.22 fold change | – | – | – | –
2 | O=c1c(O[C@@H]2O[C@H](CO)[C@H](O)[C@H](O)[C@H]2O)c(-c2ccc(O)c(O)c2)oc2cc(O)cc(O)c12 [Hyperoside, hyperoside] | – | – | – | – | 0.64 fold change | 0.61 fold change | 0.61 fold change | 0.5 fold change
3 | O=c1c(O[C@@H]2O[C@H](CO)[C@@H](O)[C@H](O)[C@H]2O)c(-c2ccc(O)c(O)c2)oc2cc(O)cc(O)c12 [Isoquercitrin, isoquercitrin] | – | – | – | – | 0.57 fold change | 0.47 fold change | 0.54 fold change | 0.9 fold change
4 | O=C(O)[C@H]1O[C@@H](Oc2cc(O)c3c(=O)cc(-c4ccc(O)c(O)c4)oc3c2)[C@H](O)[C@@H](O)[C@@H]1O [Luteoline-7-O-glucuronide, luteoline-7-O-glucuronide] | – | – | – | – | 0.41 fold change | 0.44 fold change | 0.42 fold change | 0.4 fold change
5 | O=c1c(O)c(-c2ccc(O)c(O)c2)oc2cc(O)cc(O)c12 [Quercetin, quercetin] | – | – | – | – | 0.13 fold change | 0.2 fold change | 0.13 fold change | 0.12 fold change
6 | oenothein B | 1.07 fold change | 0.87 fold change | 0.76 fold change | 1.36 fold change | – | – | – | –
